The results in this text go back to patent US8455543B2, “Platinum complexes and methods for inhibiting tumor cell proliferation” (University of South Florida, priority 2004, dated 2013).

Holding throughout (test): MTT assay, growth inhibition of human tumor cells
Type in all cases: cell-based
On the technique in general: Tetrazolium dyes change colour on reduction, which living cells bring about.

For one assay, the system named is Calu-1. Conditions: Calu-1 cells, 4 days treatment, several values = separate determinations.
The next assay has as its system Panc-1.
The next assay relates to A549.
Setting [1] is: Homo sapiens, 96 h, MTT assay, Panc-1 cells, 4 days treatment, several values = separate determinations.
Where [2] appears, read: MTT assay, Panc-1 cells, 4 days treatment, several values = separate determinations.

Read-outs that look alike come from different tables or passages of the source.

For orientation: IC50 means the point on the concentration scale where inhibition reaches its midpoint. The low end stands for higher potency, the high end for lower potency. Consider `O=c1[nH]cc(F)c(=O)[nH]1` [5-FU, 5-fluorouracil, reference compound], for which the IC50 turned out to be 250 µM in the assay on Calu-1 (Homo sapiens, 96 h) and 5 µM in the assay on Panc-1 (setting [1]).
As for `NC(=O)NO` [hydroxyurea, reference compound], the IC50 with Calu-1 (Homo sapiens, 96 h) is > 250 µM; in the assay on Panc-1 (setting [1]), 1.3 µM.
In the assay on Panc-1 (setting [2]), “Pt^IV(en) (HOHN—CO—NH2)(NO2) 5-FU [CPA-13]” returned an IC50 of 2.3 µM.
The same measure, in the same setting: the figure for “[Cis-Pt IV(NH3)2(Cl)2(NO2) (5-FU)] [JP3]” is 2.6 µM.
“[Cis-Pt IV(NH3)2(Cl)2(NO2) (OP(-salicylate)(OH)O)] [JP6]” showed an IC50 in the assay with Panc-1 of 5.5 µM.
Consider cis-[Pt^IV(NH3)2Cl2NO2-5FU [CPA-14], for which the IC50 with Calu-1 was found to be 13 µM.
As for “cis-[Pt^IV(NH3)2Cl2NO2-salicylate] [CPA-19]”, the results for the IC50 in the assay with A549 and with Panc-1 were 37 µM and 20 µM, respectively.
